Laboratory results: patent US20230303570A1, “KINASE INHIBITORS AND USES THEREOF” (ABM Therapeutics Corporation, priority 2020, published 2023)
pIC50: −log10 of the molar value.

Key:
HPK1 (MAP4K1) = HPK1 (MAP4K1) (Homo sapiens, UniProt Q92918); experiment: HPK1 (MAP4K1) kinase Lantha screen assay; assay type: biochemical
Procedure, shortened: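 Recombinant MAP4K1 preincubated 10 min with compound (6-point dilution, duplicates) in 50 mM HEPES pH 7.5, 10 mM MgCl2, then reacted with Fluorescein-PKC substrate and ATP for 90 min at room temperature. Antibody detection solution stopped reaction; after 60 min, TR-FRET read at ex 340 nm, em 520/495 nm.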

c-Kit = c-Kit (Homo sapiens, UniProt P10721); experiment: cKit kinase mobility shift assay; assay type: biochemical
Chain of c-Kit (P10721 26-976): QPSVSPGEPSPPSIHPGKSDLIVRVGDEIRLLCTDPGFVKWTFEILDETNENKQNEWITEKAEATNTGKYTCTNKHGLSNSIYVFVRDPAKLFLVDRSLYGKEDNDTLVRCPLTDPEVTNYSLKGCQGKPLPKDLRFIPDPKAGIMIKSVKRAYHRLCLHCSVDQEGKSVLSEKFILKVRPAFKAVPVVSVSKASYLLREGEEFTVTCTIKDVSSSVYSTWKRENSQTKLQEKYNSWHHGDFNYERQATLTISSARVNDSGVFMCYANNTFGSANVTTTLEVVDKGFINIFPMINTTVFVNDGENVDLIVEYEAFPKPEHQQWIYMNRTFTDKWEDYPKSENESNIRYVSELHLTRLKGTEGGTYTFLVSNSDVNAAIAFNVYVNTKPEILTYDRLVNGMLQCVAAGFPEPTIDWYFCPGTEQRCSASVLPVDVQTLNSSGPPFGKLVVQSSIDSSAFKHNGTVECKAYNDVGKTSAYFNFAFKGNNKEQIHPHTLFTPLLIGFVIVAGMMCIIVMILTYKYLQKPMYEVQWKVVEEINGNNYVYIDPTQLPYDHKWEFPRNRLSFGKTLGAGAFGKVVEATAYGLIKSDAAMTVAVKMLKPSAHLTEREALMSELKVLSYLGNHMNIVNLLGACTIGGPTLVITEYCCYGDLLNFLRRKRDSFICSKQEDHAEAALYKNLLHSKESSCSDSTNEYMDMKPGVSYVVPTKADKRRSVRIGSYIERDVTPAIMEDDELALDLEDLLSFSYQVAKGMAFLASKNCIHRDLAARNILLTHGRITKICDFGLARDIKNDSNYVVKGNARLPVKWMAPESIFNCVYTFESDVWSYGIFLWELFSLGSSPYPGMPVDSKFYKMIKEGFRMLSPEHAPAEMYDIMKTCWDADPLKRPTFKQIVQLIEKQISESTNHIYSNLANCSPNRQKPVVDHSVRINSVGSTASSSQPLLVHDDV
Experimental: The effect of the compounds on the activity of cKit, RET and AXL kinases were assessed by Mobility shift assay. • 1. 1× kinase base buffer and stop buffer for testing kinases were prepared • 1-1) 1× Kinase base buffer (50 mM HEPES, pH 7.5, 0.01% Triton X-100) • 1-2) Stop buffer (100 mM HEPES, pH 7.5, 0.015% Brij-35, 0.2% Coating Reagent #3, 50 mM EDTA) • 2. Compound and assay plate preparation: the compound was diluted to 50× of the final desired highest inhibitor concentration in reaction by 100% DMSO. 100 μl of this compound dilution was transferred to a well in a 96-well plate. For example, if the highest desired concentration was 5 μM, then 250 μM of compound DMSO solution was prepared in this step. For all compounds, the compound was serially diluted by transferring 10 μl to 70 μl of 100 DMSO in the next well and so forth for a total of 5 concentrations. 100 μl of 100% DMSO was added to two empty wells for no compound control and no enzyme control in the same 96-well plate. The plate was labeled as source plate. The intermediate plate was prepared by transferring 10 μl of compound from source plate to a new 96-well plate as the intermediate plate, adding 90 μl of 1× kinase buffer to each well of the intermediate plate, mixing the compounds in intermediate plate for 10 min on shaker. 5 μl of each well from the 96-well intermediate plate were transferred to a 384-well plate in duplicates. For example, A1 of the 96-well plate was transferred to A1 and A2 of the 384-well plate. A2 of the 96-well plate was transferred to A3 and A4 of the 384-well plate, and so on. • 4. Kinase reaction: The assay plate already contained 5 μl of compound in 10% DMSO. A 2.5× enzyme solution was prepared by adding kinases (cKit, RET, or AXL) and DTT in 1× kinase base buffer. 2.5× enzyme solution was transferred to the assay plate (by adding 10 μl of 2.5× enzyme solution to each well of the 384-well assay plate). The plate was incubated at room temperature for 10 min. 2.5× peptide solution was prepared by adding FAM-labeled peptide, ATP, MgCl2 in the 1× kinase base buffer. 2.5× peptide solution was added to the assay plate by adding 10 μl of 2.5× peptide solution to each well of the 384-well assay plate. The plate was incubated at 28° C. for the specified period of time. 25 μl of stop buffer was added to stop reaction. Data was collected on Caliper.

Chain of HPK1 (MAP4K1) (Q92918 whole entry, species assumed): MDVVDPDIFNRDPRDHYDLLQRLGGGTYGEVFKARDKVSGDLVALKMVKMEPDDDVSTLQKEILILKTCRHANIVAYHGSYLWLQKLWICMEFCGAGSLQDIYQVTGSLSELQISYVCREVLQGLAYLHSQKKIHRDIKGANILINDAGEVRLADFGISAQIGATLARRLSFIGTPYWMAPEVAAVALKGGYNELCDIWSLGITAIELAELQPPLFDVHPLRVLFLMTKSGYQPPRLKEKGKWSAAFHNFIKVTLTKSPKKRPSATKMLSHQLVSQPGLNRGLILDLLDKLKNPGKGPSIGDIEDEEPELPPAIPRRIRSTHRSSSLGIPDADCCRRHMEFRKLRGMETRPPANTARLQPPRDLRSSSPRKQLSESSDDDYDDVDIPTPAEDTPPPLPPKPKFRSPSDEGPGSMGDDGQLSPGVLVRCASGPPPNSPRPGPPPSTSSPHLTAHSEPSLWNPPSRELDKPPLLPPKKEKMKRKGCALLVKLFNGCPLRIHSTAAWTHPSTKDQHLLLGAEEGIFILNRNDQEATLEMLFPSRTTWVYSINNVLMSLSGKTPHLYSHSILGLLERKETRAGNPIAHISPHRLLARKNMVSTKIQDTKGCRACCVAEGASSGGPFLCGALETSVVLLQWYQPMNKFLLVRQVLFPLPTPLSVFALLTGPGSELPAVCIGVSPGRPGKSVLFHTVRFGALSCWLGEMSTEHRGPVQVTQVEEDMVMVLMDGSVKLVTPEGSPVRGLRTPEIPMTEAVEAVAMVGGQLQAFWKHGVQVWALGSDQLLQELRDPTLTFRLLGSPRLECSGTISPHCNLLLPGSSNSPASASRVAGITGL

Row | Compound | pIC50 (HPK1 (MAP4K1)) | pIC50 (c-Kit)
1 | CNc1ncc2c(n1)N1CCN=C1C(c1cc(NC(=O)NCCC(C)(C)C)c(F)cc1C)=C2 [Compound 317, 1-(3,3-dimethylbutyl)-3-(2-fluoro-4-methyl-5-(2-(methylamino)-8,9-dihydroimidazo[1′,2′:1,6]pyrido[2,3-d]pyrimidin-6-yl)phenyl)urea] | 5.00 to 7.00 | > 7.00
2 | Cc1ccc(NC(=O)c2cc(C(F)(F)F)ccn2)cc1C1=Cc2cnc(Nc3cnn(C)c3)nc2N2CCN=C12 [Compound 195, N-(4-methyl-3-(2-((1-methyl-1H-pyrazol-4-yl)amino)-8,9-dihydroimidazo[1′,2′:1,6]pyrido[2,3-d]pyrimidin-6-yl)phenyl)-4-(trifluoromethyl)picolinamide] | > 7.00 | > 7.00
3 | CNc1ncc2c(n1)N1CCN=C1C(c1cc(NC(=O)NCCC(F)(F)F)c(F)cc1C)=C2 [Compound 316, 1-(2-fluoro-4-methyl-5-(2-(methylamino)-8,9-dihydroimidazo[1′,2′:1,6]pyrido[2,3-d]pyrimidin-6-yl)phenyl)-3-(3,3,3-trifluoropropyl)urea] | < 5.00 | 5.00 to 7.00
4 | CNc1ncc2c(n1)N1CCN=C1C(c1cc(NC(=O)Nc3ccc(Cl)cc3F)c(F)cc1C)=C2 [Compound 337, 1-(4-chloro-2-fluorophenyl)-3-(2-fluoro-4-methyl-5-(2-(methylamino)-8,9-dihydroimidazo[1′,2′:1,6]pyrido[2,3-d]pyrimidin-6-yl)phenyl)urea] | – | > 7.00
5 | CNc1ncc2c(n1)N1CCN=C1C(c1c(C)ccc(NC(=O)c3cc(C(F)(F)F)ccn3)c1F)=C2 [Compound 140, N-(2-fluoro-4-methyl-3-(2-(methylamino)-8,9-dihydroimidazo[1′,2′:1,6]pyrido[2,3-d]pyrimidin-6-yl)phenyl)-4-(trifluoromethyl)picolinamide] | – | 5.00 to 7.00
6 | CN1CCC(n2cc(Nc3ncc4c(n3)N3CCN=C3C(c3ccc(Cl)cc3Cl)=C4)cn2)CC1 [Compound 103, 6-(2,4-dichlorophenyl)-N-(1-(1-methylpiperidin-4-yl)-1H-pyrazol-4-yl)-8,9-dihydroimidazo[1′,2′:1,6]pyrido[2,3-d]pyrimidin-2-amine] | – | > 7.00
7 | O=C(Nc1cc(C2=Cc3cnc(NC4COC4)nc3N3CCN=C23)c(Br)cc1F)Nc1ccccc1Cl [Compound 329, 1-(4-bromo-2-fluoro-5-(2-(oxetan-3-ylamino)-8,9-dihydroimidazo[1′,2′:1,6]pyrido[2,3-d]pyrimidin-6-yl)phenyl)-3-(2-chlorophenyl)urea] | – | > 7.00

The remaining lines, values ahead:

Row | pIC50 (HPK1 (MAP4K1)) | pIC50 (c-Kit) | Compound
8 | – | < 5.00 | CNc1ncc2c(n1)N1CCN=C1C(c1cc(NC(=O)NC3CC3)c(F)cc1C)=C2 [Compound 315, 1-cyclopropyl-3-(2-fluoro-4-methyl-5-(2-(methylamino)-8,9-dihydroimidazo[1′,2′:1,6]pyrido[2,3-d]pyrimidin-6-yl)phenyl)urea]
9 | – | > 7.00 | CCNc1ncc2c(n1)N1CCN=C1C(c1cc(NC(=O)Nc3ccccc3Cl)c(F)cc1C)=C2 [Compound 332, 1-(2-chlorophenyl)-3-(5-(2-(ethylamino)-8,9-dihydroimidazo[1′,2′:1,6]pyrido[2,3-d]pyrimidin-6-yl)-2-fluoro-4-methylphenyl)urea]
10 | – | > 7.00 | O=C(Nc1ccccc1)Nc1cc(C2=Cc3cnc(NC4COC4)nc3N3CCN=C23)c(Br)cc1F [Compound 328, 1-(4-bromo-2-fluoro-5-(2-(oxetan-3-ylamino)-8,9-dihydroimidazo[1′,2′:1,6]pyrido[2,3-d]pyrimidin-6-yl)phenyl)-3-phenylurea]
11 | – | > 7.00 | CNc1ncc2c(n1)N1CCN=C1C(c1cc(NC(=O)Nc3ccccc3F)c(Cl)cc1C)=C2 [Compound 334, 1-(2-chloro-4-methyl-5-(2-(methylamino)-8,9-dihydroimidazo[1′,2′:1,6]pyrido[2,3-d]pyrimidin-6-yl)phenyl)-3-(2-fluorophenyl)urea]
